These results are taken from US12441768B2, “Compositions and methods for treating endometriosis” (EndoMet Biosciences, Inc., priority 2018, dated 2025).

Data set [1] deals with Wnt-responsive promoter (TCF/LEF). Description: Wnt-dependent luciferase reporter assay. The class given is cell-based, murine. The method, boiled down:
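EC50 (uM) derived from inhibition of luminescence in Wnt3a-stimulated murine 3T3 cells expressing luciferase under a TCF/LEF promoter, with peptides added across a concentration range and vehicle as control.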
Background: In a reporter assay the amount or activity of a reporter protein is the signal.

In another data set the target is T1, β-catenin (Homo sapiens, UniProt P35222).
T1 sequence (P35222 1-781): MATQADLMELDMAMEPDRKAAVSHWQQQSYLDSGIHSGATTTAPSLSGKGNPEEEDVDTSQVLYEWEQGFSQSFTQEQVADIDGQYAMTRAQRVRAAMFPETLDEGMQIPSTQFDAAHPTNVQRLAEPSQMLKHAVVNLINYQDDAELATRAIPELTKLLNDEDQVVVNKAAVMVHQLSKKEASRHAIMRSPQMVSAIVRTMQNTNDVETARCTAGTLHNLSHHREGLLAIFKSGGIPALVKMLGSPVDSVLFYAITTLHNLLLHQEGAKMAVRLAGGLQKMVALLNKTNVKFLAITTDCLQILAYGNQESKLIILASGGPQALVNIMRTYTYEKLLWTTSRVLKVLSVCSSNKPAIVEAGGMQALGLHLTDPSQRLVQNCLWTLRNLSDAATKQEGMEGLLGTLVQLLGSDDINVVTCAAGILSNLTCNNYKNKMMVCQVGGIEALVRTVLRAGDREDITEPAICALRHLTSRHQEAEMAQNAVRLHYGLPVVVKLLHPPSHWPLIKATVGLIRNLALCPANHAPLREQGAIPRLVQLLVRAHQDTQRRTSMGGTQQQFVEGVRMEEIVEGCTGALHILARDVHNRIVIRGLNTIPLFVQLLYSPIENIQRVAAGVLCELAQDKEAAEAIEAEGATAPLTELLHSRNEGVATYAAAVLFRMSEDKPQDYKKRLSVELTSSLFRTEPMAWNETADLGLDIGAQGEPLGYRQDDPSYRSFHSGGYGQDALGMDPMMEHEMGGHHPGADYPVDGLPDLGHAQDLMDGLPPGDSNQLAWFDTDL
In words: KD50 measurement using competitive fluorescence polarization (FP) with labelled TCF4. In kind it is binding. The settings on record: fluorescence polarization, β-catenin; for Kd: read-out: β-Cat FP KD. The method, boiled down:
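Competitive FP in which unlabelled inhibitor (10 nM to 30 uM dilution series) displaces 5 nM labelled TCF4 from 100 nM β-catenin, room temperature. Read-out ex 470 nm, em 520 nm; experiment repeated three times.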
(In general: In fluorescence polarisation assays a small probe gives low polarisation when free and higher when bound to something large.)

The conditions of data set [2]: % Viability non-Wnt responsive cells.

Molecules are shown by their SMILES. Where a SMILES comes first, the peptide text is derived from it.

In general, EC50 refers to the concentration that produces a half-maximal response. Read a high EC50 as lower potency in that assay. For orientation: Kd means the constant that tells how readily two partners part at equilibrium. In general, viability refers to a read-out of living cells in per cent, often relative to untreated cells. On to `CC[C@H](C)[C@@H]1NC(=O)[C@H](CC(C)C)NC(=O)[C@H]([C@@H](C)CC)NC(=O)[C@H](Cc2c[nH]c3ccccc23)NC(=O)[C@@H](N)CCCCNC(=O)CC[C@@H](C(=O)O)NC(=O)[C@H](Cc2c[nH]c3ccccc23)NC(=O)[C@H](C)NC(=O)[C@H](CO)NC1=O` [compound 184] (HELM PEPTIDE1{K.W.I.L.I.S.A.W.E}$PEPTIDE1,PEPTIDE1,1:R3-9:R3$$$V2.0), for which the EC50 in data set [1] is less than 7.5 µM. Also, at β-catenin, the “β-Cat FP Hill slope” value is recorded as 0.7 and the dissociation constant (Kd) lay within 10 to 30 µM. In addition, the viability in data set [2] turned out to be 95.2%.
For `CC[C@H](C)[C@@H]1NC(=O)[C@H](CC(C)C)NC(=O)[C@H](Cc2ccccc2)NC(=O)[C@H](Cc2c[nH]c3ccccc23)NC(=O)[C@@H](N)CCCCNC(=O)CC[C@@H](C(=O)O)NC(=O)[C@H](Cc2c[nH]c3ccccc23)NC(=O)[C@H](Cc2ccccc2)NC(=O)[C@H](C)NC1=O` [compound 201] (HELM PEPTIDE1{K.W.F.L.I.A.F.W.E}$PEPTIDE1,PEPTIDE1,1:R3-9:R3$$$V2.0), in that order: 22.5 to 30 µM, 0.7, 1 to 10 µM and 60.1%.
`CC[C@H](C)[C@H](NC(=O)[C@H](CC(C)C)NC(=O)[C@@H](NC(=O)[C@H](Cc1c[nH]c2ccccc12)NC(=O)[C@@H](N)CCSC)[C@@H](C)CC)C(=O)N[C@@H](CO)C(=O)N[C@@H](CO)C(=O)N[C@@H](Cc1c[nH]c2ccccc12)C(=O)NCC(=O)O` [compound 129] (H-MWILISSWG-OH) returned an EC50 in data set [1] of less than 7.5 µM. Moreover, on β-catenin, the “β-Cat FP Hill slope” value was 0.87 and the Kd was in the range of 0.4 to 1 µM. For the same compound, in data set [2], the viability stood at 134%.
For `CC[C@H](C)[C@H](NC(=O)[C@@H]1CCCN1C(=O)[C@H](Cc1ccccc1)NC(=O)[C@H](Cc1c[nH]c2ccccc12)NC(=O)[C@H](CCSC)NC(=O)[C@H](CCCNC(=N)N)NC(=O)[C@H](CO)NC(=O)[C@@H](N)CCSC)C(=O)N[C@@H](CO)C(=O)N[C@@H](Cc1ccccc1)C(=O)N[C@@H](Cc1c[nH]c2ccccc12)C(=O)NCC(=O)O` [compound 65] (H-MSRMWFPISFWG-OH), in that order: greater than 30 µM, 0.7, 1 to 10 µM and 105%.
Turning to `CC[C@H](C)[C@H](NC(=O)[C@H](CC(C)C)NC(=O)[C@H](Cc1ccccc1)NC(=O)[C@H](CC(C)C)NC(=O)[C@H](CCSC)NC(=O)[C@H](CCCNC(=N)N)NC(=O)[C@H](CO)NC(=O)[C@@H](N)CCSC)C(=O)N[C@@H](CO)C(=O)N[C@@H](Cc1ccccc1)C(=O)N[C@@H](Cc1c[nH]c2ccccc12)C(=O)NCC(=O)O` [compound 52] (H-MSRMLFLISFWG-OH), the 50% effective concentration (EC50) in data set [1] lay within 15 to 22.5 µM. The Kd at β-catenin is greater than 30 µM. Also, in data set [2], the viability stood at 87.2%.
In the case of `CC[C@H](C)[C@@H]1NC(=O)[C@H](CC(C)C)NC(=O)[C@H](Cc2ccccc2)NC(=O)[C@H](Cc2c[nH]c3ccccc23)NC(=O)[C@H](CCSC)NC(=O)[C@@H](N)CCCCNC(=O)CC[C@@H](C(=O)N[C@@H](Cc2c[nH]c3ccccc23)C(=O)NCC(=O)O)NC(=O)[C@H](CS)NC1=O` [compound 180] (HELM PEPTIDE1{K.M.W.F.L.I.C.E.W.G}$PEPTIDE1,PEPTIDE1,1:R3-8:R3$$$V2.0), the EC50 in data set [1] is less than 7.5 µM. Besides, on β-catenin, the Kd is greater than 30 µM. The viability in data set [2] was found to be 103%.
`CSCC[C@H](NC(=O)[C@H](CCCNC(=N)N)NC(=O)[C@H](CO)NC(=O)[C@@H](N)CCSC)C(=O)N[C@@H](Cc1c[nH]c2ccccc12)C(=O)N[C@@H](Cc1ccccc1)C(=O)N[C@@H](CC(C)C)C(=O)N[C@@H](Cc1ccccc1)C(=O)N[C@@H](CO)C(=O)N[C@@H](Cc1ccccc1)C(=O)N[C@@H](Cc1c[nH]c2ccccc12)C(=O)NCC(=O)O` [compound 63] (H-MSRMWFLFSFWG-OH) showed an EC50 in data set [1] of less than 7.5 µM. Moreover, the Kd at β-catenin was greater than 30 µM. Further, the viability in data set [2] was determined as 97.9%.
`CC[C@H](C)[C@@H]1NC(=O)[C@H](CC(C)C)NC(=O)[C@H](Cc2ccccc2)NC(=O)[C@H](Cc2c[nH]c3ccccc23)NC(=O)[C@H](CCSC)NC(=O)[C@@H](NC(C)=O)CCCCNC(=O)CC[C@@H](C(=O)O)NC(=O)[C@H](Cc2c[nH]c3ccccc23)NC(=O)[C@H](Cc2ccccc2)NC(=O)[C@H](CS)NC1=O` [compound 186] (HELM PEPTIDE1{[ac].K.M.W.F.L.I.C.F.W.E}$PEPTIDE1,PEPTIDE1,2:R3-11:R3$$$V2.0) displayed an EC50 in data set [1] greater than 30 µM. Also, on β-catenin, the “β-Cat FP Hill slope” value stood at 1.07 and the dissociation constant (Kd) was 0.4 to 1 µM. Moreover, in data set [2], the viability was 96.4%.
For `CC[C@H](C)[C@@H]1NC(=O)[C@H](CC(C)C)NC(=O)[C@H](Cc2ccccc2)NC(=O)[C@H](Cc2c[nH]c3ccccc23)NC(=O)[C@@H](NC(C)=O)CCCCNC(=O)CC[C@@H](C(=O)O)NC(=O)[C@H](Cc2c[nH]c3ccccc23)NC(=O)[C@H](Cc2ccccc2)NC(=O)[C@H](CS)NC1=O` [compound 185] (HELM PEPTIDE1{[ac].K.W.F.L.I.C.F.W.E}$PEPTIDE1,PEPTIDE1,2:R3-10:R3$$$V2.0), in that order: 22.5 to 30 µM, 1.32, less than 0.4 µM and 87.8%.
As to `CC[C@H](C)[C@H](NC(=O)[C@H](CC(C)C)NC(=O)[C@H](Cc1ccccc1)NC(=O)[C@H](Cc1c[nH]c2ccccc12)NC(=O)[C@H](CCSC)NC(=O)[C@H](CCCNC(=N)N)NC(=O)[C@H](CO)NC(=O)[C@@H](N)CCCNC(=N)N)C(=O)N[C@@H](CO)C(=O)N[C@@H](Cc1ccccc1)C(=O)N[C@@H](Cc1c[nH]c2ccccc12)C(N)=O` [compound 84] (H-RSRMWFLISFW-NH2), in data set [1], the EC50 is greater than 30 µM. In addition, the Kd on β-catenin was greater than 30 µM. Further, the viability in data set [2] turned out to be 88.6%.
`CC[C@H](C)[C@H](NC(=O)[C@H](CC(C)C)NC(=O)[C@@H](NC(=O)[C@H](Cc1c[nH]c2ccccc12)NC(=O)[C@@H](N)CCSC)[C@@H](C)CC)C(=O)N[C@@H](CCO)C(=O)N[C@@H](Cc1ccccc1)C(=O)N[C@@H](Cc1c[nH]c2ccccc12)C(=O)NCC(=O)O` [compound 144] (HELM PEPTIDE1{M.W.I.L.I.[O=C([C@H](CCO)N[*:1])[*:2]].F.W.G}$$$$V2.0): the concentration giving a half-maximal response (EC50) in data set [1] is less than 7.5 µM. For the same compound, on β-catenin, the Kd was greater than 30 µM. Further, the viability in data set [2] stood at 106%.
As for `CC[C@H](C)[C@H](NC(=O)[C@H](CC(C)C)NC(=O)[C@H](Cc1ccccc1)NC(=O)[C@H](Cc1c[nH]c2ccccc12)NC(=O)[C@H](C)N)C(=O)N[C@@H](CO)C(=O)N[C@@H](Cc1ccccc1)C(=O)N[C@@H](Cc1c[nH]c2ccccc12)C(=O)NCC(=O)O` [compound 209] (H-AWFLISFWG-OH), the EC50 in data set [1] was less than 7.5 µM. On β-catenin, the “β-Cat FP Hill slope” value came to 0.93 and the Kd lay within 0.4 to 1 µM. Moreover, in data set [2], the viability was found to be 91%.
In data set [1], `CC[C@H](C)[C@H](NC(=O)[C@H](CC(C)C)NC(=O)[C@H](Cc1ccccc1)NC(=O)[C@H](Cc1c[nH]c2ccccc12)NC(=O)[C@@H](N)CCSC)C(=O)N[C@@H](CCC(N)=O)C(=O)N[C@@H](Cc1ccccc1)C(=O)N[C@@H](Cc1ccc(O)cc1)C(=O)NCC(=O)O` [compound 149] (H-MWFLIQFYG-OH) registered an EC50 of 7.5 to 15 µM. Besides, on β-catenin, the “β-Cat FP Hill slope” value was 0.75 and the Kd fell in the range of 0.4 to 1 µM. Also, the viability in data set [2] came to 104%.
